According to patent US20230012560A1, “HEPATITIS B ANTIVIRAL AGENTS” (TAIGEN BIOTECHNOLOGY CO., LTD., priority 2019, published 2023):

Tested on: HBV (HepAD38 cells)
Assay: Real-Time PCR Assay (extracellular HBV DNA from HepAD38 culture supernatants)
Assay type: cell-based
Details: Hepatitis B virus, 120 h, compound treatment for 5 days without tetracycline, extracellular DNA in culture supernatant quantified by real-time PCR, read-out: EC50 (50% effective concentration)
Method: HepAD38 cells were seeded and cultured on 96-well plates. After incubation for 2 days, cells were fed with compound-containing media without tetracycline. After compound treatment for 5 days, culture supernatants were collected. Extracellular DNA was then extracted using LabTurbo DNA mini kit, and quantified by real-time PCR.
Real-time PCR was performed using an ABI QuantStudio 3 system in a 96-well optical plate format. The PCR mixture containing forward primer (5′-[…]-3′) (SEQ ID NO.1), reverse primer (5′-GGTGAGTGATTGGAGGTTG-3′) (SEQ ID NO.2) and Luna Universal qPCR Master Mix in a final volume of 24 μl was incubated at 95° C. for 10 min followed by 45 cycle of incubation at 95° C. for 10 s and 60° C. for 10 s. Regression analysis was performed using GraphPad Prism 5 to calculate the 50% effective concentration (EC50) values.

| SMILES | EC50 [nM] |
| --- | --- |
| Cn1cc(S(=O)(=O)N[C@@H]2CCN(S(=O)(=O)C3(C)CC3)C2)c(F)c1C(=O)Nc1ccc(F)c(F)c1 [Compound 2] | < 100 |
| Cn1cc(S(=O)(=O)N[C@@H]2CCN(S(=O)(=O)C3CCCC3)C2)c(F)c1C(=O)Nc1ccc(F)c(F)c1 [Compound 3] | 100 to 300 |
| COCCS(=O)(=O)N1CC[C@@H](NS(=O)(=O)c2cn(C)c(C(=O)Nc3ccc(F)c(F)c3)c2F)C1 [Compound 4] | < 100 |
| CNS(=O)(=O)N1CC[C@@H](NS(=O)(=O)c2cn(C)c(C(=O)Nc3ccc(F)c(F)c3)c2F)C1 [Compound 5] | < 100 |
| CNS(=O)(=O)N1CC[C@@H](NS(=O)(=O)c2cn(C)c(C(=O)Nc3cc(F)c(F)c(F)c3)c2F)C1 [Compound 6] | < 100 |
| CNS(=O)(=O)N1CC[C@@H](NS(=O)(=O)c2c(F)c(C(=O)Nc3ccc(F)c(F)c3)n(C)c2Br)C1 [Compound 8] | < 100 |
| CN(C)S(=O)(=O)N1CC[C@@H](NS(=O)(=O)c2cn(C)c(C(=O)Nc3ccc(F)c(F)c3)c2F)C1 [Compound 9] | < 100 |
| CNS(=O)(=O)N1CC[C@@H](NS(=O)(=O)c2c(F)c(C(=O)Nc3ccc(F)c(F)c3)n3c2CCC3)C1 [Compound 10] | < 100 |
| CNS(=O)(=O)N1CC[C@@H](NS(=O)(=O)c2c(F)c(C(=O)Nc3ccc(F)c(F)c3)n3c2CCCC3)C1 [Compound 11] | 100 to 300 |
| CNS(=O)(=O)N1CC[C@@H](NS(=O)(=O)c2c(Cl)c(C(=O)Nc3cc(F)c(F)c(F)c3)n3c2CCC3)C1 [Compound 12] | < 100 |
| Cn1cc(S(=O)(=O)N[C@@H]2CCN(S(=O)(=O)c3ccc(F)cc3)C2)c(F)c1C(=O)Nc1ccc(F)c(F)c1 [Compound 13] | < 100 |
| Cn1cc(S(=O)(=O)N[C@@H]2CCN(S(=O)(=O)/C=C/c3ccccc3)C2)c(F)c1C(=O)Nc1ccc(F)c(F)c1 [Compound 14] | 100 to 300 |
| CNS(=O)(=O)N1CC[C@@H](NS(=O)(=O)c2cn(C)c(C(=O)Nc3ccc(F)c(C(F)F)c3)c2F)C1 [Compound 16] | < 100 |
| CCn1cc(S(=O)(=O)N[C@@H]2CCN(S(=O)(=O)NC)C2)c(F)c1C(=O)Nc1ccc(F)c(F)c1 [Compound 17] | < 100 |
| CNS(=O)(=O)N1CCC(C)C(NS(=O)(=O)c2cn(C)c(C(=O)Nc3ccc(F)c(F)c3)c2F)C1 (stereo not drawn) [Compound 19] | < 100 |
| CNS(=O)(=O)N1CCCC(C)(NS(=O)(=O)c2cn(C)c(C(=O)Nc3ccc(F)c(F)c3)c2F)C1 (stereo not drawn) [Compound 20] | < 100 |
| CNS(=O)(=O)N1CCC[C@@H](NS(=O)(=O)c2cn(C)c(C(=O)Nc3cccc(C(F)(F)F)c3)c2F)C1 [Compound 21] | < 100 |
| CCn1cc(S(=O)(=O)N[C@@H]2CCCN(S(=O)(=O)NC)C2)c(F)c1C(=O)Nc1ccc(F)c(F)c1 [Compound 22] | < 100 |
| Cn1cc(S(=O)(=O)NC2CCN(S(=O)(=O)C3(C)CC3)CC2)c(F)c1C(=O)Nc1ccc(F)c(F)c1 [Compound 24] | < 100 |
| CNS(=O)(=O)N1CCC(C)(NS(=O)(=O)c2cn(C)c(C(=O)Nc3ccc(F)c(F)c3)c2F)CC1 [Compound 25] | < 100 |
| CCS(=O)(=O)N1CCC2(NS(=O)(=O)c3cn(C)c(C(=O)Nc4ccc(F)c(F)c4)c3F)CC2C1 (stereo not drawn) [Compound 26] | < 100 |
| CNS(=O)(=O)N1CCC(NS(=O)(=O)c2cn(C)c(C(=O)Nc3ccc(F)c(F)c3)c2F)C(F)(F)C1 (stereo not drawn) [Compound 27] | < 100 |
| CN(C)C(=O)C(=O)N1CC[C@@H](NS(=O)(=O)c2cn(C)c(C(=O)Nc3cc(F)c(F)c(F)c3)c2F)C1 [Compound 30] | < 100 |
| COCCNC(=O)C(=O)N1CC[C@@H](NS(=O)(=O)c2cn(C)c(C(=O)Nc3ccc(F)c(F)c3)c2F)C1 [Compound 32] | < 100 |

| SMILES | EC50 [nM] |
| --- | --- |
| Cn1cc(S(=O)(=O)N[C@@H]2CCN(C(=O)C(=O)NC3CC3)C2)c(F)c1C(=O)Nc1ccc(F)c(F)c1 [Compound 33] | < 100 |
| C#CCNC(=O)C(=O)N1CC[C@@H](NS(=O)(=O)c2cn(C)c(C(=O)Nc3ccc(F)c(F)c3)c2F)C1 [Compound 34] | < 100 |
| CCONC(=O)C(=O)N1CC[C@@H](NS(=O)(=O)c2cn(C)c(C(=O)Nc3cc(F)c(F)c(F)c3)c2F)C1 [Compound 35] | < 100 |
| Cn1cc(S(=O)(=O)N[C@@H]2CCN(C(=O)C(=O)NC3COC3)C2)c(F)c1C(=O)Nc1cc(F)c(F)c(F)c1 [Compound 36] | < 100 |
| Cn1cc(S(=O)(=O)N[C@@H]2CCN(C(=O)C(=O)NCCO)C2)c(F)c1C(=O)Nc1cc(F)c(F)c(F)c1 [Compound 37] | < 100 |
| CC(=O)OCCNC(=O)C(=O)N1CC[C@@H](NS(=O)(=O)c2cn(C)c(C(=O)Nc3cc(F)c(F)c(F)c3)c2F)C1 [Compound 38] | < 100 |
| C[C@@H](NC(=O)C(=O)N1CC[C@@H](NS(=O)(=O)c2cn(C)c(C(=O)Nc3cc(F)c(F)c(F)c3)c2F)C1)C(F)(F)F [Compound 39] | < 100 |
| CNC(=O)C(=O)N1CC[C@@H](NS(=O)(=O)c2cn(C)c(C(=O)Nc3ccc(F)c(C(F)F)c3)c2F)C1 [Compound 40] | < 100 |
| CNC(=O)C(=O)N1CC[C@@H](NS(=O)(=O)c2cn(C)c(C(=O)Nc3ccc(F)c(Cl)c3)c2F)C1 [Compound 41] | < 100 |
| CNC(=O)C(=O)N1CC[C@@H](NS(=O)(=O)c2c(F)c(C(=O)Nc3cc(F)c(F)c(F)c3)n(C)c2Cl)C1 [Compound 43] | < 100 |
| CNC(=O)C(=O)N1CC[C@@H](NS(=O)(=O)c2c(F)c(C(=O)Nc3ccc(F)c(F)c3)n(C)c2C)C1 [Compound 44] | < 100 |
| CCNC(=O)C(=O)N1CC[C@@H](NS(=O)(=O)c2c(F)c(C(=O)Nc3cc(F)c(F)c(F)c3)n3c2CCC3)C1 [Compound 45] | < 100 |
| CNC(=O)C(=O)N1CC[C@@H](NS(=O)(=O)c2c(F)c(C(=O)Nc3cc(F)c(F)c(F)c3)n3c2CCCC3)C1 [Compound 46] | 100 to 300 |
| CNC(=O)C(=O)N1CC[C@@H](NS(=O)(=O)c2c(Cl)c(C(=O)Nc3cc(F)c(F)c(F)c3)n3c2CCC3)C1 [Compound 47] | 100 to 300 |
| CNC(=O)C(=O)N1CC[C@@H](NS(=O)(=O)c2cn(CC(F)F)c(C(=O)Nc3ccc(F)c(F)c3)c2F)C1 [Compound 48] | < 100 |
| CNC(=O)C(=O)N1CC[C@@H](NS(=O)(=O)c2cn(C3CC3)c(C(=O)Nc3ccc(F)c(F)c3)c2F)C1 [Compound 49] | < 100 |
| CNC(=O)C(=O)N1CC[C@@H](NS(=O)(=O)c2cn(CC3CC3)c(C(=O)Nc3ccc(F)c(F)c3)c2F)C1 [Compound 50] | 100 to 300 |
| CCCn1cc(S(=O)(=O)N[C@@H]2CCN(C(=O)C(=O)NC)C2)c(F)c1C(=O)Nc1ccc(F)c(F)c1 [Compound 51] | < 100 |
| C=CCn1cc(S(=O)(=O)N[C@@H]2CCN(C(=O)C(=O)NC)C2)c(F)c1C(=O)Nc1ccc(F)c(F)c1 [Compound 52] | < 100 |
| CNC(=O)C(=O)N1CC[C@@H](NS(=O)(=O)c2cn(C3CCCC3)c(C(=O)Nc3ccc(F)c(F)c3)c2F)C1 [Compound 53] | 300 to 1000 |
| CCNC(=O)C(=O)N1CC(C)C(NS(=O)(=O)c2cn(C)c(C(=O)Nc3cc(F)c(F)c(F)c3)c2F)C1 (stereo not drawn) [Compound 54] | < 100 |
| CNC(=O)C(=O)N1CC2CC2(NS(=O)(=O)c2cn(C)c(C(=O)Nc3cc(F)c(F)c(F)c3)c2F)C1 (stereo not drawn) [Compound 55] | < 100 |
| CCNC(=O)C(=O)N1CC(NS(=O)(=O)c2cn(C)c(C(=O)Nc3cc(F)c(F)c(F)c3)c2F)C1 [Compound 56] | < 100 |
| CCn1cc(S(=O)(=O)N[C@@H]2CCCN(C(=O)C(N)=O)C2)c(F)c1C(=O)Nc1ccc(F)c(F)c1 [Compound 58] | < 100 |
